Consider 3 compounds from patent US9833405B2, “Biodegradable microdepot delivery system for topical delivery” (Nano and Advanced Materials Institute Limited, priority 2014, dated 2017).

Where a SMILES comes first, the peptide text is derived from it. The star is where a group is joined. Palmitoyl = CCCCCCCCCCCCCCCC(=O)*

In the series the test system is HaCaT cells. As to the kind of experiment: Cell viability assay (MTT) for in vitro skin irritation of active ingredients. It counts as cell-based, human. As to conditions: for Cell viability(%): MTT. As to the method: HaCaT cells, a human keratinocyte cell line, are used as the in vitro model to test any irritation effect of the active ingredients used in the polymeric solution to form the microdepot delivery system of the present invention. The following is the procedures of an MTT assay for testing any skin irritation effect of the active ingredients used in the polymeric solution of the present invention: • a) 12 mM MTT stock solution is prepared by adding 1 mL of sterile PBS into one 5 mg vial of MTT (Component A) and mixed by sonication until the vial of MTT is dissolved in the PBS; • b) HaCaT cells at 5,000 cells per well are seed into a 96-well plate and incubated at 37° C. in 5% CO2 for 24 to 48 hours until the cells become adherent; • c) Culture medium in each well is removed and replaced with 100 μL of test compound (e.g., active ingredient used in the polymeric solution of the present invention); • d) 10 μL of the MTT stock solution prepared in step (a) is added to each well; a negative control containing 100 μL of culture medium and 10 μL of the MTT stock solution is also included for comparison; • e) Both test samples and negative control prepared in step (d) are incubated at 37° C. for 4 hours; • f) 25 μL of the solution is removed from each well after incubation in step (e) followed by adding 50 μL of DMSO to each well and mix thoroughly by pipette; • g) The mixture in step (f) is incubated at 37° C. for 10 minutes; • h) The mixture in each well after the incubation in step (g) is mixed again before measuring absorbance at 540 nm; • i) The mixture is subject to a spectrophotometer to measure the absorbance at 540 nm.
The cell viability of HaCaT cells with the treatment of the test compound is calculated based on the following formula:
[formula] where ^OD(1) is the absorbance of culture medium only; ^OD(2) is the absorbance of the culture medium with the cells; ^OD(3) is the absorbance of the culture medium with the test compound; and ^OD(4) is the absorbance of the culture medium with the cells and test compound.

Take `CCCCCCCCCCCCCCCC(=O)N[C@@H](CCCCN)C(=O)N[C@H](C(=O)N[C@H](C(=O)N[C@@H](CCCCN)C(=O)N[C@@H](CO)C(=O)O)[C@@H](C)O)[C@@H](C)O` [Pal-KTTKS] (Palmitoyl-KTTKS-OH): the “Cell viability(%)” value is, setting by setting: (test compound 3%) 119%; (test compound 4%) 135.1%; (test compound 5%) 122.6%; (test compound 8%) 141.9%; (test compound 10%) 127.8%. Further, the “cytotoxicity (viability higher than or equal to control)” value (“cytotoxicity” for short) (concentrations ranging from 3% to 10%) was “non-cytotoxic”.

Turning to `NC(=O)c1cccnc1` [Niacinamide, reference compound], the “Cell viability(%)” value was 115% (test compound 2%); 91.34% (test compound 4%); 77.44% (test compound 6%); 84.08% (test compound 8%); 80.43% (test compound 10%). Besides, the “cytotoxicity” value (at 2%) is reported as “non-cytotoxic”.

On to GHK-Cu, for which the “Cell viability(%)” value is 135.1% (test compound 0.2%); 139.6% (test compound 0.5%); 144.6% (test compound 1%); 132.7% (test compound 2%); 136.1% (test compound 5%). Further, the “cytotoxicity” value (concentrations ranging from 0.2% to 5%) is on record as “non-cytotoxic”.
